Test systems include A498 renal; CAKI-1 renal; DU-145 prostate; HL-60(TB) leukemia; OVCAR-8 ovarian; PC-3 prostate; SF-295 CNS; SK-OV-3 ovarian; SW-620 colon; UACC-62 melanoma.
Holding throughout (assay): DTP human tumour cell line panel, 48 h

SMILES strings stand for the structures.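 Assay format: 96-well plates, 48-hour exposure. GI50 is the concentration that inhibits growth by half. The concentration for full growth arrest is given as TGI.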 Where only a bound is given, the exact number is not on record here.

Take `Cc1ccc(Sc2oc(-c3ccc(C)cc3)nc2[P+](c2ccccc2)(c2ccccc2)c2ccccc2)cc1`: the GI50 – broadly, the concentration at which growth is held to half of that of the control – was 0.152 µM in the assay with A498 renal; 0.283 µM in the assay on CAKI-1 renal; 0.416 µM in the assay with DU-145 prostate; 0.23 µM in the assay on HL-60(TB) leukemia; 0.345 µM in the assay with OVCAR-8 ovarian; 0.305 µM in the assay on PC-3 prostate. Moreover, the GI50 was 0.291 µM in the assay on SF-295 CNS, 0.27 µM in the assay with SK-OV-3 ovarian, 0.338 µM with SW-620 colon and 0.398 µM in the assay with UACC-62 melanoma. For the same compound, the TGI (as a rule, the concentration at which net growth stops) was found to be 0.842 µM in the assay on A498 renal; 1.06 µM in the assay with CAKI-1 renal; 1.48 µM in the assay with DU-145 prostate; 0.566 µM in the assay on HL-60(TB) leukemia; 1.65 µM in the assay on OVCAR-8 ovarian; 1.34 µM in the assay on PC-3 prostate. Also, the concentration for total growth inhibition (TGI) worked out at 1.02 µM in the assay with SF-295 CNS, 1.1 µM in the assay on SK-OV-3 ovarian, 1.32 µM in the assay on SW-620 colon and 1.5 µM in the assay with UACC-62 melanoma.

On to `O=c1cccc(C#CC#CCCCO)o1`, for which the GI50 with A498 renal is 23.7 µM; in the assay with CAKI-1 renal it was 2.9 µM; in the assay with DU-145 prostate, 2.37 µM; with HL-60(TB) leukemia it was 2.24 µM; in the assay on OVCAR-8 ovarian, 4.33 µM; in the assay on PC-3 prostate, 3.13 µM. Further, the GI50 in the assay on SF-295 CNS is 13.5 µM; in the assay with SK-OV-3 ovarian it was 18.5 µM; in the assay with SW-620 colon, 2.67 µM; in the assay with UACC-62 melanoma it was 4.42 µM. Moreover, the TGI in the assay with A498 renal was 40.5 µM; in the assay on CAKI-1 renal it was 8.17 µM; in the assay with DU-145 prostate, 5.86 µM; with HL-60(TB) leukemia it was 5.39 µM; in the assay on OVCAR-8 ovarian it was over 35.8 µM; in the assay on PC-3 prostate, over 22.8 µM. For the same compound, the TGI in the assay on SF-295 CNS came to 28.9 µM; in the assay on SK-OV-3 ovarian it was 45.4 µM; in the assay with UACC-62 melanoma it was 10.5 µM.

Take `O=S(=O)(NC1=NCCN1C(=S)SN1CCn2c1nsc2=S)c1cccc(OC(F)(F)F)c1`: the GI50 in the assay with A498 renal is 22.6 µM; in the assay on CAKI-1 renal it was 17.8 µM; with DU-145 prostate it was 14.1 µM; with HL-60(TB) leukemia, over 100 µM; in the assay with OVCAR-8 ovarian it was 11 µM; in the assay on PC-3 prostate it was 9.94 µM. Moreover, the GI50 is 23.6 µM in the assay on SF-295 CNS, 23.5 µM in the assay on SK-OV-3 ovarian, 6.7 µM with SW-620 colon and 9.68 µM in the assay on UACC-62 melanoma. Also, the TGI in the assay on A498 renal was 42 µM; with CAKI-1 renal, 43.5 µM; in the assay on DU-145 prostate, 29.6 µM; in the assay with HL-60(TB) leukemia it was over 100 µM; with OVCAR-8 ovarian, 65.1 µM; with PC-3 prostate it was 26.4 µM. The concentration for total growth inhibition (TGI) with SF-295 CNS was 63.3 µM; in the assay on SK-OV-3 ovarian, 46.5 µM; in the assay on SW-620 colon, over 100 µM; in the assay on UACC-62 melanoma, 21.6 µM.

As to `Cn1nnc2c(C(N)=O)ncn2c1=O`, the GI50 in the assay with A498 renal was over 100 µM. Besides, the TGI in the assay with A498 renal, with CAKI-1 renal, in the assay with DU-145 prostate, in the assay on HL-60(TB) leukemia, in the assay with OVCAR-8 ovarian and in the assay with PC-3 prostate was over 100 µM in each case. Besides, the TGI in the assay with SF-295 CNS was over 100 µM; in the assay with SK-OV-3 ovarian, 100 µM; with SW-620 colon, over 100 µM; in the assay on UACC-62 melanoma, over 100 µM.

In the case of `CCSc1nc(N)c(C#N)c(-c2ccco2)c1C#N`, the GI50 was 26.5 µM in the assay with A498 renal; 13.7 µM with CAKI-1 renal; 42.6 µM in the assay with DU-145 prostate; 39.8 µM in the assay with HL-60(TB) leukemia; 53.6 µM with OVCAR-8 ovarian; 22.3 µM in the assay with PC-3 prostate. For the same compound, the GI50 was 47.7 µM in the assay on SF-295 CNS, 53.3 µM in the assay with SK-OV-3 ovarian, 42.2 µM in the assay with SW-620 colon and 32.6 µM with UACC-62 melanoma. Besides, the concentration for total growth inhibition (TGI) in the assay on A498 renal was over 100 µM; in the assay with CAKI-1 renal, 67.6 µM; in the assay with DU-145 prostate, over 100 µM; with HL-60(TB) leukemia, over 100 µM; with OVCAR-8 ovarian it was over 100 µM; with PC-3 prostate, over 100 µM. Besides, the TGI in the assay with SF-295 CNS, with SK-OV-3 ovarian, in the assay with SW-620 colon and in the assay on UACC-62 melanoma was over 100 µM each time.

`CCOC1OC(=O)[C@H]2[C@@H]1[C@@H]1CC[C@H]2O1` (stereo not given in full): the GI50 in the assay with A498 renal, in the assay with CAKI-1 renal, with DU-145 prostate, with HL-60(TB) leukemia, in the assay with OVCAR-8 ovarian and in the assay with PC-3 prostate was over 100 µM in each case. The GI50 with SF-295 CNS, in the assay with SK-OV-3 ovarian, in the assay on SW-620 colon and with UACC-62 melanoma was over 100 µM throughout. Moreover, the TGI in the assay with A498 renal, with CAKI-1 renal, with DU-145 prostate, in the assay with HL-60(TB) leukemia, in the assay on OVCAR-8 ovarian and in the assay on PC-3 prostate was over 100 µM in each case. The TGI with SF-295 CNS, in the assay with SK-OV-3 ovarian, in the assay with SW-620 colon and in the assay on UACC-62 melanoma was over 100 µM each time.

As for `Nc1n[nH]c(N)c1N=Nc1ccc(O)cc1`, the GI50 with A498 renal is 18.2 µM; with CAKI-1 renal, 14.7 µM; with DU-145 prostate, 17 µM; in the assay on HL-60(TB) leukemia, 6.44 µM; with OVCAR-8 ovarian it was 18 µM; in the assay on PC-3 prostate, 20.3 µM. The GI50 with SF-295 CNS was 23.3 µM; in the assay with SK-OV-3 ovarian it was 49.2 µM; in the assay on SW-620 colon, 26.3 µM; in the assay on UACC-62 melanoma, 11 µM. The TGI in the assay on A498 renal was 43.7 µM; in the assay on CAKI-1 renal, 63.9 µM; with DU-145 prostate, 62.5 µM; in the assay with HL-60(TB) leukemia, 35.4 µM; with OVCAR-8 ovarian it was over 100 µM; in the assay with PC-3 prostate it was over 100 µM. Also, the TGI is 82.5 µM in the assay on SF-295 CNS, over 100 µM with SK-OV-3 ovarian, 84.8 µM with SW-620 colon and 36.4 µM in the assay with UACC-62 melanoma.

Take `O=C1CCC(N2C(=O)c3cccc(NCCCC4CCN(CCNC(=O)c5cc6c(o5)C(=O)c5ccccc5C6=O)CC4)c3C2=O)C(=O)N1` (stereo not given): the GI50 is 1.41 µM in the assay with A498 renal; 2.17 µM in the assay with CAKI-1 renal; 0.185 µM in the assay on DU-145 prostate; 0.858 µM in the assay on HL-60(TB) leukemia; 1.41 µM in the assay with OVCAR-8 ovarian; 0.976 µM in the assay on PC-3 prostate. In addition, the GI50 in the assay with SF-295 CNS was 0.252 µM; with SK-OV-3 ovarian, 2.88 µM; in the assay on SW-620 colon, 0.45 µM; in the assay on UACC-62 melanoma it was 0.304 µM. In addition, the TGI was 2.75 µM in the assay with A498 renal; 9.13 µM with CAKI-1 renal; 0.344 µM with DU-145 prostate; 6.16 µM in the assay with HL-60(TB) leukemia; 7.18 µM in the assay on OVCAR-8 ovarian; over 76.4 µM in the assay with PC-3 prostate. Further, the TGI with SF-295 CNS came out at 0.711 µM; with SK-OV-3 ovarian, 8.52 µM; with SW-620 colon it was 1.86 µM; with UACC-62 melanoma, 0.98 µM.

For the origin of these results see PubChem BioAssay (NCI).
